Source: patent publication US8951982B2, “Methods and compositions for the treatment of eye disorders with increased intraocular pressure” (Sylentis S.A.U., priority 2004, dated 2015)
d = 2'-deoxy (DNA)

Assays:
[1] = tested on: Normotensive New Zealand White rabbits; assay: In vivo rabbit model of IOP (contact tonometer); conditions: for decrease of IOP over a saline control: figure legends (FIGS. 5-8), 256 μg dose of siRNA per administration; for IOP Reduction (% of saline control): mean normalized maximum percentage of IOP reduction ± SD, topical to corneal surface, once daily for four consecutive days
Method: Normotensive New Zealand White rabbits (males, 2-3 kg) were used in the in vivo assays. The animals were kept in individual cages with free access to food and water. Animals were submitted to artificial 12 hours light/darkness cycles to avoid uncontrolled circadian oscillations of IOP and all experiments were performed at the same time of day to control for any fluctuations in IOP due to circadian oscillations. Animal handling and treatment were carried out in accordance with the European Communities Council Directive (86/609/EEC) and the statement of the Association for Research in Vision and Ophthalmology on the Use of Animals in Ophthalmic and Vision Research. Each animal was used for only one experiment.
IOP measurements were done using a contact tonometer (TonoPen XL, Mentor, Norwell, Mass.) due to past success of measuring intraocular pressures within the range of 3 to 30 mm Hg in rabbits (Abrams et al., 1996, Invest Ophthalmol Vis Sci. 37:940-4). Measurements were performed by delicately applying the tonometer's sensor to the corneal surface of the animal. All measurements fell within the 3 to 30 mm Hg interval with the mean baseline value of intraocular pressure being 17.0±0.39 mm Hg for untreated animals (n=100). In order to avoid distress to the animal, rabbits were topically anesthetized (10 μl of oxibuprocaine/tetracaine, 0.4%/1%, in a saline solution (1/4 v:v)) prior to IOP measurement.
Commercially available drugs were typically administered to the animals by instilling a small volume (typically 40 μl) on the corneal surface. Contralateral eyes were treated with the vehicle alone and were used as controls in each experiment.
siRNA molecules or commercially available drugs were typically administered to the animals as follows. Doses of siRNA in saline solution (0.9% w/v) to a final volume of 40 μl were applied to the corneal surface of one eye each day during four consecutive days. The opposite eye was taken as a control and 40 μl of sterile saline (0.9% w/v) was instilled on it at the same time points. Commercially available drugs were typically administered to the animals by instilling a small volume (typically 40 μl) on the corneal surface. Contralateral eyes were treated with the vehicle alone and were used as controls in each experiment. The IOP was measured before each application and at 2 h, 4 h and 6 h following the instillation for 10 days.
The data are summarized in Table 2 where values represent the mean of the normalized maximum percentage of IOP reduction after siRNA treatment and their standard deviations. The decrease in IOP was statistically significant for all the treated targets.

PTGS2 = assay: siRNA transfection of cells, real time PCR of target gene expression; type: cell-based; conditions: 100 nM siRNA, mean ± SD
Method: Cells (either NPE, OMDC, or HEK293 cells) were incubated with various siRNA molecules and assayed for expression of the native mRNA corresponding to the siRNA molecule. One day prior to transfection, 2−4×10^5 cells were seeded into each well of a 6 well plate in 3 ml of growth medium (DMEM, 10% serum, antibiotics and glutamine) and incubated under normal growth conditions (37° C. and 5% CO2). Lipofectamine 2000 Reagent (Invitrogen Corporation, Carlsbad, Calif.) was used to transfect the cells with the siRNA molecules. The protocol supplied by the manufacturer was followed. Briefly, siRNA molecules were added to cells that were 30%-50% confluent to a final concentration of 100 nM. Prior to addition to the cells, the siRNA molecule was diluted in 250 μl DMEM and incubated at room temperature for 5 minutes. The siRNA was then mixed with 6 μl of Lipofectamine 2000 Reagent that also had been diluted in 250 μl DMEM and the mixture was incubated at room temperature for 20 minutes. The siRNA/Lipofectamine mixture was added to the cells drop-wise with 2 ml of fresh growth medium low in antibiotics. After swirling the plates to ensure uniform distribution of the transfection complexes, the cells were incubated under normal growth conditions for 24 hours. After incubation with either of the transfection complexes, the medium was removed and replaced with 3 ml of fresh complete growth medium. mRNA was collected from cells at 24, 48 and 72 hours post-transfection.
After transfection and incubation with a siRNA molecule, total RNA fractions were extracted from cells using protocols well known in the art. The effect of siRNAs on target gene expression was analyzed by real time PCR and semi-quantitative PCR according to standard protocols. Approximately 250 ng of total RNA was used for reverse transcription followed by PCR amplification with specific primers for the target gene in a reaction mixture containing SYBR Green I Dye (Applied Biosystems, Foster City, Calif.). Basic PCR conditions comprised an initial step of […], followed by 40 cycles of 5 s at 95° C., 10 s at 62° C. and 15 s at 72° C. Quantification of beta-actin mRNA was used as a control for data normalization.
The values represent the mean of the percentage of siRNA interference of each gene expression once normalized with the control cells and their standard deviations.

Substance	IOP Reduction (% of saline control) [1] [%]	other results
SEQ ID NO: 5: siRNA targeting carbonic anhydrase IV (CA4) (CAUCGUCACCACCAAGGCA; two-thymidine 3' overhang, other chemistry not given here; listed as Homo sapiens)	14.47 ± 5.00	decrease of IOP over a saline control [1]: 16%
SEQ ID NO: 105: siRNA targeting adrenergic, beta-1-, receptor (ADRB1) (CGACCCCAAGUGCUGCGAC; 3' dTdT, sugars by position and backbone not given here; listed as Homo sapiens)	28.04 ± 2.98	decrease of IOP over a saline control [1]: 25%
SEQ ID NO: 139: siRNA targeting human adrenergic, beta-2-, receptor (ADRB2) (CAUUGUGCAUGUGAUCCAG; listed as RNA, chemistry not given here; listed as Homo sapiens)	–	decrease of IOP over a saline control [1]: 22%
SEQ ID NO: 189: siRNA targeting human acetylcholinesterase (ACHE) (CCGUGAGCUGAGCGAGGAC; two-thymidine 3' overhang, other chemistry not given here; listed as Homo sapiens)	–	decrease of IOP over a saline control [1]: 25%
SEQ ID NO: 421: siRNA targeting PTGS2 (CACAACAGAGUAUGCGAUG; 3' dTdT, sugars by position and backbone not given here; listed as Homo sapiens)	–	% of gene transcript level in control cells (PTGS2; 24 h post-transfection): 81.00 ± 13.54%; % of gene transcript level in control cells (PTGS2; 48 h post-transfection): 66.85 ± 18.67%
SEQ ID NO: 426: siRNA targeting PTGS2 (prostaglandin endoperoxide synthase 2) (GCAGGCUAAUACUGAUAGG; 3' dTdT, sugars by position and backbone not given here; listed as Homo sapiens)	23.78 ± 2.27	decrease of IOP over a saline control [1]: 22%; % of gene transcript level in control cells (PTGS2; 24 h post-transfection): 68.68 ± 12.48%; % of gene transcript level in control cells (PTGS2; 48 h post-transfection): 70.17 ± 19.21%
SEQ ID NO: 477: siRNA targeting PTGS2 (CACUGCCUCAAUUCAGUCU; 3' dTdT, sugars by position and backbone not given here; listed as Homo sapiens)	–	% of gene transcript level in control cells (PTGS2; 24 h post-transfection): 75.45 ± 14.71%; % of gene transcript level in control cells (PTGS2; 48 h post-transfection): 61.83 ± 16.96%
SEQ ID NO: 522: siRNA targeting carbonic anhydrase XII (CA12) (AUGAUCAACAACUUCCGGC; two-thymidine 3' overhang, other chemistry not given here; listed as Homo sapiens)	24.30 ± 1.29	–
SEQ ID NO: 774: siRNA targeting AGTR2 (angiotensin II receptor, type 2) (GCAUCUUAUAUAGUUCCCC; two-thymidine 3' overhang, other chemistry not given here; listed as Homo sapiens)	11.22 ± 1.53	–
SEQ ID NO: 1399: siRNA targeting ATP1A1 (ATPase, Na+/K+ transporting, alpha 1 polypeptide) (CUGGAACUCUGACUCAGAA; 3' dTdT, sugars by position and backbone not given here; listed as Homo sapiens)	18.13 ± 1.39	–
SEQ ID NO: 1820: siRNA targeting ATP1B2 (ATPase, Na+/K+ transporting, beta 2 polypeptide) (GUUCCACGUGAACUACACA; 3' dTdT, sugars by position and backbone not given here; duplex siRNA; listed as Homo sapiens)	16.32 ± 0.91	–
SEQ ID NO: 1838: siRNA targeting rabbit carbonic anhydrase II; rabbit homolog of SEQ ID NO: 73 (GAUUGGCAGUGCUACACCA; 3' dTdT, sugars by position and backbone not given here; duplex siRNA; listed as Oryctolagus sp.)	24.84 ± 3.41	–
SEQ ID NO: 1841: siRNA targeting rabbit adrenergic, beta-2-, receptor; rabbit homolog of SEQ ID NO: 139 (CAUCGUGCACGUGAUCCAG; 3' dTdT, sugars by position and backbone not given here; duplex siRNA; listed as Oryctolagus sp.)	21.18 ± 1.88	–
SEQ ID NO: 1846: siRNA targeting rabbit acetylcholinesterase; rabbit homolog of SEQ ID NO: 189 (CCGUGAGCUGAGUGAGGAC; two-thymidine 3' overhang, other chemistry not given here; listed as Oryctolagus sp.)	25.25 ± 2.70	–
SEQ ID NO: 1848: siRNA targeting rabbit selectin E (SELE); rabbit homolog of SEQ ID NO: 262 (GCCAACUUGUAAAGCUGUG; 3' dTdT, sugars by position and backbone not given here; duplex siRNA; listed as Oryctolagus sp.)	21.80 ± 1.74	–
SEQ ID NO: 1850: siRNA targeting PTGS1; rabbit homolog of SEQ ID NO: 322 (CGUGAGCUAUUACACGCGU; 3' dTdT, sugars by position and backbone not given here; duplex siRNA; listed as Oryctolagus sp.)	14.62 ± 1.93	–
SEQ ID NO: 1856: siRNA, rabbit homolog of SEQ ID NO: 546; target printed ADRAIA (GACCGACAAAUCCGACUCG; 3' dTdT, sugars by position and backbone not given here; duplex siRNA; listed as Oryctolagus sp.)	9.51 ± 1.04	–
SEQ ID NO: 1858: siRNA, rabbit homolog of SEQ ID NO: 619; target printed ADRAM (GAACUUUCAUGAGGACACC; 3' dTdT, sugars by position and backbone not given here; duplex siRNA; listed as Oryctolagus sp.)	17.48 ± 1.30	–
SEQ ID NO: 1859: siRNA targeting AGTR1; rabbit homolog of SEQ ID NO: 705 (ACUCAAGACUGUGGCCAGU; 3' dTdT, sugars by position and backbone not given here; duplex siRNA; listed as Oryctolagus sp.)	9.72 ± 1.35	–
SEQ ID NO: 1860: siRNA targeting ACE1; rabbit homolog of SEQ ID NO: 866 (CUGGAACUAUAACACCAAC; two-thymidine 3' overhang, other chemistry not given here; listed as Oryctolagus sp.)	17.51 ± 1.28	–
